The numbers were not newly measured in patent US9238007B2, “Method for the production of a medicament containing tadalafil” (RATIOPHARM GMBH, priority 2007, dated 2016), which cites them from elsewhere.

The conditions of the data set: according to WO 01/08687.

With `CN1CC(=O)N2[C@H](c3ccc4c(c3)OCO4)c3[nH]c4ccccc4c3C[C@@H]2C1=O` [Tadalafil, (6R,12aR)-6-(1,3-benzodioxol-5-yl)-2-methyl-1,2,3,4,6,7,12,12a-octahydropyrazino [2,1 :6,1]pyrido[3,4-b]indole-1,4-dione], the solubility in water entry is reported as “about 2 μg/ml”.
